Patent publication US20250345339A1, “DOSES AND REGIMENS OF HER2 INHIBITORS” (IAMBIC THERAPEUTICS, INC., priority 2024, published 2025)
Entries after “also recorded” stand apart in the source; their conditions may differ. One block for each compound: values may come before it.

Tests used:
in vivo = conditions: mouse, tumor/plasma
wtERBB2 = wtERBB2 (Homo sapiens (Human), UniProt P04626); experiment: HotSpot radiometric kinase activity assay, HER2 WT; type: biochemical
Description: (§1) The purpose of the wtERBB2, ERBB2-A775_G776insYVMA (ERBB2YVMA), wtEGFR biochemical assay was to evaluate the inhibition (% inhibition and IC50 values) of the small molecule inhibitors by using the “HotSpot” radiometric kinase activity assay. HotSpot assays monitor the […] of kinase substrate by the radioactive gamma phosphate of adenosine triphosphate (33P-ATP) during biochemical reactions. HotSpot assays was performed in steps upon completion of the kinase reaction: deposition of a reaction mixture aliquot onto P81 ion exchange paper, extensive washing of the aforementioned P81 paper using phosphoric acid to remove unbound radiolabeled 33P-ATP from the P81 paper, and finally visualization and quantification of the dried P81 paper utilizing a phosphoimager. […] Typical reaction solutions (10 μL final reaction volume) contained the following buffer conditions: 20 mM Hepes (pH 7.5), 10 mM MgCl2, 1 mM EGTA, 0.01% Brij35, 0.02 mg/mL BSA, 0.1 mM Na3VO4, 2 mM DTT, 1% DMSO. The assay was primed by preparing a fresh 0.2 mg/mL solution of pEY (Sigma Cat: P7244) substrate in the reaction buffer and supplementing that solution with […] of MnCl2 as substrate cofactor (Sigma Cat: M9522). The kinase of interest was then added to the solution at the appropriate concentration (30 nM wtERBB2 from, or 20 nM ERBB2YVMA, or 4 nM wtEGFR) and gently mixed prior to delivery of compound in 100% DMSO by acoustic dispensing (Beckman Echo550). Compound, Kinase, and substrate were allowed to incubate for 20 minutes at room temperature prior to the initiation of the reaction by addition of 33P-ATP (PerkinElmer Cat: NEG602, final conc 10 μM). […] IC50 determinations were made from a plot of kinase activity as a function of inhibitor concentration fit to the 4-parameter IC50 equation with the enzyme concentration held constant using GraphPad Prism (San Diego).

wtEGFR = wtEGFR (Homo sapiens (Human), UniProt P00533); experiment: HotSpot radiometric kinase activity assay, EGFR WT; type: biochemical
Description: as §1

ERBB2-A775_G776insYVMA = ERBB2-A775_G776insYVMA (Homo sapiens (Human), UniProt P04626, INS775YVMA); experiment: HotSpot radiometric kinase activity assay, HER2 YVMA; type: biochemical
Description: as §1

EGFR = EGFR (Homo sapiens (Human), UniProt P00533); experiment: Enzyme inactivation kinetics, EGFR; type: biochemical; conditions: Table 23
[1] = tested on: BT-474 breast cancer cell line; experiment: BT-474 xenograft tumor growth inhibition; type: in vivo, mouse; conditions: clinical reference compounds
Description: The tumor cells were routinely sub-cultured after confluence by trypsin-EDTA treatment, not to exceed 4-5 passages. The cells growing in an exponential growth phase were harvested and counted for tumor inoculation.
Tumor size and body weight measurement was conducted twice weekly.

MDAMB453 = MDAMB453 breast cancer model; conditions: 100 mg/kg PO daily for 14 days
[2] = tested on: NCI-N87-luciferase gastric cancer cell line; experiment: Intracranial NCI-N87-luciferase tumor model; conditions: for Tumor Growth Inhibition: intracranial NCI-N87, 100 mg/kg QD
Description: The dosing duration was 37 days, started 12 days after cell inoculation. The dosing Day 1 was Day 12 post cell inoculation.
The total bioluminescent signals (photons/s) emitted from the brains after luciferin injection were used as an indicator of tumor growth and antitumor activity.

KYSE410 = KYSE410 tumor model (HER2+ and KRAS G12C); conditions: Compound 5 at 250 mg/kg
HCC1954 = HCC1954 xenograft tumor growth inhibition; type: in vivo, mouse
Description: HCC1954 cells were thawed and cultured in vitro, and the HCC1954 cells were harvested for in vivo inoculation. After one week of acclimation, 16 female 6-8 weeks-old mice were used. After inoculation, the tumor volume and body weight of the mice were measured three times per week. When the average tumor volume reaches about 200 mm^3, mice were randomly grouped into 2 groups according to the tumor volume and body weight. Test drugs were administrated immediately afterward. Tumor volume and body weight measurements were taken twice a week. At the end of the study, tumor and plasma samples were collected. The mouse grouping and test material treatment for tumor growth inhibition is listed Table 7. Tumor size and body weight measurement were conducted twice weekly. At the end of study, Group 1 and Group 2 were split into 2 sub-groups, dosed and samples collected as described Table 8. At the end of treatment, tumor samples were collected for pharmacodynamic (PD) analysis.

BaF3 P95Her2 = conditions: 100 mg/kg PO daily for 20 days
JIMT-1 = JIMT-1 breast tumor model; conditions: 20/15 mg/kg PO daily for 9 then 12 days

Chain of wtERBB2 (P04626 23-1255): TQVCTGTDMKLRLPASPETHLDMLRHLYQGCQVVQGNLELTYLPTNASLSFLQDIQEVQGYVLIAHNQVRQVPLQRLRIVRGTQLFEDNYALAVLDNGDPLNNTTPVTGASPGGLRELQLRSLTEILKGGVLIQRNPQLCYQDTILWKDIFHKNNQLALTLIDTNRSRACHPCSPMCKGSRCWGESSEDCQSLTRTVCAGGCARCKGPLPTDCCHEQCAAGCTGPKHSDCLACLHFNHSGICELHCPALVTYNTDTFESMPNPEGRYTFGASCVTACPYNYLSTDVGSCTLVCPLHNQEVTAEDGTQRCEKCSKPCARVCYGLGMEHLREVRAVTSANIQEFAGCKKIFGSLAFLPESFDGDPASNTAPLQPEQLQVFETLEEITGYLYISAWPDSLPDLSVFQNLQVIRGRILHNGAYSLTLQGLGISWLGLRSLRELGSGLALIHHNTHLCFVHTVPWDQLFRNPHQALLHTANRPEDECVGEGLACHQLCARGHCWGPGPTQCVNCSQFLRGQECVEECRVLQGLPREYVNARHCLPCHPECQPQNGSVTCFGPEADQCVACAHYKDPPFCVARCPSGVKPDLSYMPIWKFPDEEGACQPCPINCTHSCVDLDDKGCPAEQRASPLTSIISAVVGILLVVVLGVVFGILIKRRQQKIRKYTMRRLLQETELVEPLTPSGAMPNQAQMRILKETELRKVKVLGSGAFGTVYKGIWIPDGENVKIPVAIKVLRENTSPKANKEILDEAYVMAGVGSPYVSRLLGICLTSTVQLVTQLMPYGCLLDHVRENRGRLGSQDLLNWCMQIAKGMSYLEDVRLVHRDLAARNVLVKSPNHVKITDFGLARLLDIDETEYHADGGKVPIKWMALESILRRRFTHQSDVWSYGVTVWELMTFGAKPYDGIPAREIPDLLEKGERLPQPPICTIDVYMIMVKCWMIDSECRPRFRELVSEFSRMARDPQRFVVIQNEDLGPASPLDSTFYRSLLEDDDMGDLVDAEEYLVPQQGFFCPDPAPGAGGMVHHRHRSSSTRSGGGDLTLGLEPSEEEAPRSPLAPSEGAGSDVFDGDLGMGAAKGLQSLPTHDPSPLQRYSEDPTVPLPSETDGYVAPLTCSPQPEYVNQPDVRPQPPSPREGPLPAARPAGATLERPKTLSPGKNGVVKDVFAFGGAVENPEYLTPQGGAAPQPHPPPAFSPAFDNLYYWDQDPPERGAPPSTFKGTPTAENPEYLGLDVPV
Chain of EGFR (P00533 25-1210): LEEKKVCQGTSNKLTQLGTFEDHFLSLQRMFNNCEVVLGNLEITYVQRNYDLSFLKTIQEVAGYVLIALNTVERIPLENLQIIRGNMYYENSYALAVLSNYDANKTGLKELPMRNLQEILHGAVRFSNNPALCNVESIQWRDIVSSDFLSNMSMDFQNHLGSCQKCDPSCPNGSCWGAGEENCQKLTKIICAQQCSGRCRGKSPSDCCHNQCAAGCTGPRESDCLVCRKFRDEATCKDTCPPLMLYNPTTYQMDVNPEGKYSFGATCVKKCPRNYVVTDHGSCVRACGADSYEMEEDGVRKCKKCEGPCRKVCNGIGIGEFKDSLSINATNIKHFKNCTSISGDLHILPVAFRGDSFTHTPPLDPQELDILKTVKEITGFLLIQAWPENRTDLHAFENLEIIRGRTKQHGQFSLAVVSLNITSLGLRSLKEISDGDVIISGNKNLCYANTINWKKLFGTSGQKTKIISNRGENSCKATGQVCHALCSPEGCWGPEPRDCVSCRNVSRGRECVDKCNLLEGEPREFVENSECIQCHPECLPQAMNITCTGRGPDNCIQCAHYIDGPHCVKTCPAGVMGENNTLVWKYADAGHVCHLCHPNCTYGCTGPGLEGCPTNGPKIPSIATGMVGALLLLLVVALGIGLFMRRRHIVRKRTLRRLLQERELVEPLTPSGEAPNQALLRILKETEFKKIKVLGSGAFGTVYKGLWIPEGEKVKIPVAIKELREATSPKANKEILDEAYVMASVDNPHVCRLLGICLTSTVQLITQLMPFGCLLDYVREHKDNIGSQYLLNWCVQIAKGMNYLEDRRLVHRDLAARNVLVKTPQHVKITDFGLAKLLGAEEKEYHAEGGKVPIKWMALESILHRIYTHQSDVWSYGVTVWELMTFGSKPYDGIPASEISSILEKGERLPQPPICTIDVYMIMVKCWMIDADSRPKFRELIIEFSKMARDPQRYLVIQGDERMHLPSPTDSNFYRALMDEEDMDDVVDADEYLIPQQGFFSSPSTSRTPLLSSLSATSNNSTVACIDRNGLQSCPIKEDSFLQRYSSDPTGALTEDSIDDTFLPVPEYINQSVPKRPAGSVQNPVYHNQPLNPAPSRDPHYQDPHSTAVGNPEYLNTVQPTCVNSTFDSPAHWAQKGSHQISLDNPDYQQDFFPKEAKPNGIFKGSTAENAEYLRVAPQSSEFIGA
Chain of wtEGFR (P00533 25-1210): as above
Chain of ERBB2-A775_G776insYVMA (P04626 other isoform, or with tags, fused parts or gaps del 1-675/ins YVMA behind 775 limits assumed): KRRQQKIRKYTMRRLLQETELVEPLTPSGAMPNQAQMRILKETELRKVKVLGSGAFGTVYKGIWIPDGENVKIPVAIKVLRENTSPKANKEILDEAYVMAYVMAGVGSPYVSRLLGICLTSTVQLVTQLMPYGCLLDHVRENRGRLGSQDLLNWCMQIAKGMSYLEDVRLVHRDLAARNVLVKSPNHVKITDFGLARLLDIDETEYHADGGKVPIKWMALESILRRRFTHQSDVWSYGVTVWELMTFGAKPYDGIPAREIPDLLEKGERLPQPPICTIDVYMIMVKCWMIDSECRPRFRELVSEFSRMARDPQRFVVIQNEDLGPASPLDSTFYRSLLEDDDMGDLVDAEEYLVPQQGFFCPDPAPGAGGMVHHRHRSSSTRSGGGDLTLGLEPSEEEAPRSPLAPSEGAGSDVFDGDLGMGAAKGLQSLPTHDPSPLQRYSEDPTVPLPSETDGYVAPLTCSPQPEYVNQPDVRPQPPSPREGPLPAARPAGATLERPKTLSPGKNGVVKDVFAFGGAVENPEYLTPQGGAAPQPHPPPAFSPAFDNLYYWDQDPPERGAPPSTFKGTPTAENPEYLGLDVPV

Kp at 4 h (in vivo): 0.36
SMILES: C=CC(=O)N1CCC(Oc2cc3c(Nc4ccc(Cl)c(Cl)c4F)ncnc3cc2OC)CC1 [Poziotinib]

IC50 (wtERBB2): < 200 nM
SMILES: Cc1cc(Nc2ncnn3ccc(-c4cnn(CCNC(=O)/C=C/CN(C)C)c4)c23)ccc1Oc1ccn2ncnc2c1 [Compound 14, (E)-N-(2-(4-(4-((4-([1,2,4]triazolo[1,5-a]pyridin-7-yloxy)-3-methylphenyl)amino)pyrrolo[2,1-f][1,2,4]triazin-5-yl)-1H-pyrazol-1-yl)ethyl)-4-(dimethylamino)but-2-enamide]

IC50 (wtEGFR): < 200 nM | IC50 (wtERBB2): < 200 nM | IC50 (ERBB2-A775_G776insYVMA): < 200 nM
SMILES: C=CC(=O)N1CCC(c2ccn3ncnc(Nc4ccc(Oc5ccn6ncnc6c5)c(C)c4)c23)CC1 [Compound 4, 1-(4-(4-((4-([1,2,4]triazolo[1,5-a]pyridin-7-yloxy)-3-methylphenyl)amino)pyrrolo[2,1-f][1,2,4]triazin-5-yl)piperidin-1-yl)prop-2-en-1-one]

EGFR kinact (s − 1) (EGFR): 1.1 × 10^−2 s − 1 | HER2 vs. EGFR Kinetic Selectivity (EGFR): 47 | Ki (EGFR): 680 nM
SMILES: Cc1noc2ccc(C(=O)Nc3ccc4[nH]c(CN5CCCC5)nc4c3)cc12 [ELVN-002]

SMILES: CCOc1cc2ncnc(Nc3ccc(Oc4ccn5ncnc5c4)c(C)c3)c2cc1NC(=O)/C(F)=C/[C@H]1CCCN1C [SPH5030]
TR compared with Compound 5 [1]: significantly less TR than Compound 5

IC50 (wtEGFR): < 200 nM | IC50 (wtERBB2): < 200 nM | IC50 (ERBB2-A775_G776insYVMA): < 200 nM
SMILES: Cc1cc(Nc2ncnn3ccc(C4CN(C(=O)/C=C/CN(C)C)C4)c23)ccc1Oc1ccn2ncnc2c1 [Compound 1, (E)-1-(3-(4-((4-([1,2,4]triazolo[1,5-a]pyridin-7-yloxy)-3-methylphenyl)amino)pyrrolo[2,1-f][1,2,4]triazin-5-yl)azetidin-1-yl)-4-(dimethylamino)but-2-en-1-one]

IC50 (wtEGFR): < 200 nM | IC50 (wtERBB2): < 200 nM | IC50 (ERBB2-A775_G776insYVMA): < 200 nM
SMILES: C=CC(=O)N1CCN(c2ccn3ncnc(Nc4ccc(Oc5ccn6ncnc6c5)c(C)c4)c23)CC1 [Compound 3, 1-(4-(4-((4-([1,2,4]triazolo[1,5-a]pyridin-7-yloxy)-3-methylphenyl)amino)pyrrolo[2,1-f][1,2,4]triazin-5-yl)piperazin-1-yl)prop-2-en-1-one]

IC50 (wtERBB2): < 200 nM | IC50 (ERBB2-A775_G776insYVMA): < 200 nM
SMILES: Cc1cc(Nc2ncnn3ccc(C4CCCN(C(=O)/C=C/CN(C)C)CC4)c23)ccc1Oc1ccn2ncnc2c1 (centres unmarked) [Compound 12, (E)-1-(4-(4-((4-([1,2,4]triazolo[1,5-a]pyridin-7-yloxy)-3-methylphenyl)amino)pyrrolo[2,1-f][1,2,4]triazin-5-yl)azepan-1-yl)-4-(dimethylamino)but-2-en-1-one]

IC50 (wtERBB2): < 200 nM | IC50 (ERBB2-A775_G776insYVMA): < 200 nM
SMILES: Cc1cc(Nc2ncnn3ccc(C4CC5(C4)CN(C(=O)/C=C/CN(C)C)C5)c23)ccc1Oc1ccn2ncnc2c1 [Compound 13, (E)-1-(6-(4-((4-([1,2,4]triazolo[1,5-a]pyridin-7-yloxy)-3-methylphenyl)amino)pyrrolo[2,1-f][1,2,4]triazin-5-yl)-2-azaspiro[3.3]heptan-2-yl)-4-(dimethylamino)but-2-en-1-one]

SMILES: Cc1cc(Nc2ncnc3ccc(NC4=NC(C)(C)CO4)cc23)ccc1Oc1ccn2ncnc2c1 [Tucatinib]
TGI (tumor growth inhibition) (MDAMB453): 90% | antitumor effect in intracranial model, in words ([2]; NCI-N87-luc intracranial xenograft): only modest single agent effect | Tumor Growth Inhibition ([2]; Day 5): 9% | Tumor Growth Inhibition ([2]; Day 9): −11% | Tumor Growth Inhibition ([2]; Day 13): −14% | Tumor Growth Inhibition ([2]; Day 16): 18% | Tumor Growth Inhibition ([2]; Day 19): 45% | Tumor Growth Inhibition ([2]; Day 23): 25% | Tumor Growth Inhibition ([2]; Day 26): 30% | anti-tumor activity, in words (KYSE410): ineffective; also recorded: weak or no activity; also recorded: weak/no activity | TGI (tumor growth inhibition) (HCC1954; HCC1954, 100 mg/kg PO daily for 21 days): 30% | anti-tumor effect (HCC1954; HCC1954, comparator): tumor stasis | anti-tumor effect (FIG. 29) (HCC1954; HCC1954 xenograft, Compound 5 100 and 250 mg/kg, tucatinib 100 mg/kg): did not achieve tumor stasis | TGI (tumor growth inhibition) (BaF3 P95Her2): 99% | TR compared with Compound 5 [1]: significantly less TR than Compound 5

SMILES: Cc1nc(NC(=O)N2CCC[C@H]2C(N)=O)sc1-c1ccnc(C(C)(C)C(F)(F)F)c1 [alpilisib]
TGI (JIMT-1): 64%

IC50 (wtEGFR): < 200 nM | IC50 (wtERBB2): < 200 nM | IC50 (ERBB2-A775_G776insYVMA): < 200 nM
SMILES: C=CC(=O)N1CC(c2ccn(-c3ccn4ncnc(Nc5ccc(Oc6ccn7ncnc7c6)c(C)c5)c34)n2)C1 [Compound 8, 1-(3-(1-(4-((4-([1,2,4]triazolo[1,5-a]pyridin-7-yloxy)-3-methylphenyl)amino)pyrrolo[2,1-f][1,2,4]triazin-5-yl)-1H-pyrazol-3-yl)azetidin-1-yl)prop-2-en-1-one]
